Measurements reported in patent publication US20210317099A1, “SAFER, POTENT, AND FAST ACTING ANTIMICROBIAL AGENTS” (Purdue Research Foundation, priority 2020, published 2021).
Converted amounts (≈) assume the structure as drawn. Like-named read-outs stand apart in the source and are kept apart here.

Assays:
Assay type in all cases: cell-based
VRSA 12 = experiment: MIC, Gram-positive panel; settings: Staphylococcus aureus; VRSA 12; read-out: MIC
Description: (§1) Next, the spectrum of antibacterial activity of compounds 144, 148, 149, 151, 155, 158, and 187 was examined against a panel of clinically relevant Gram-positive bacterial pathogens including methicillin-resistant Staphylococcus aureus (MRSA), vancomycin-resistant Staphylococcus aureus (VRSA), vancomycin-resistant Enterococcus faecalis and Enterococcus faecium (VRE), and Streptococcus pneumoniae. Bacterial strains were grown aerobically overnight on tryptone soya agar plates at 37° C. Afterwards, a bacterial solution equivalent to 0.5 McFarland standard was prepared and diluted in cation-adjusted Mueller-Hinton broth (CAMHB) (for staphylococci). Enterococci and Streptococci were diluted in tryptone soya broth (TSB) to achieve a bacterial concentration of about 5×10^5 CFU/mL and seeded in 96-well plates. Compounds and control drugs were added in the first row of 96-well plates and serially diluted with media containing bacteria. Plates were then, incubated aerobically at 37° C. for 18-20 hours (except for S. pneumoniae, which was incubated at 37° C. in presence of 5% CO2 for 18-20 hours).

MRSA NRS 119 = experiment: MIC, Gram-positive panel; settings: Staphylococcus aureus; MRSA NRS 119; read-out: MIC
Description: as §1

VRSA 10 = experiment: MIC, Gram-positive panel; settings: Staphylococcus aureus; VRSA 10; read-out: MIC
Description: as §1

MRSA NRS 386 = experiment: MIC, Gram-positive panel; settings: Staphylococcus aureus; MRSA NRS 386; read-out: MIC
Description: as §1

S. aureus ATCC 6538 = experiment: MIC, Gram-positive panel; settings: Staphylococcus aureus, ATCC6538; S. aureus ATCC 6538; read-out: MIC
Description: as §1

[1] = test system: Enterococcus faecalis ATCC 51299 (VRE); experiment: MIC, Gram-positive panel; settings: Enterococcus faecalis ATCC 51299 (VRE); read-out: MIC
Description: as §1

MRSA NRS 123 = experiment: MIC, Gram-positive panel; settings: Staphylococcus aureus; MRSA NRS 123; read-out: MIC
Description: as §1

[2] = test system: Enterococcus faecium ATCC 700221 (VRE); experiment: MIC, Gram-positive panel; settings: Enterococcus faecium ATCC 700221 (VRE); read-out: MIC
Description: as §1

S. pneumoniae ATCC 51916 = experiment: MIC, Gram-positive panel; settings: Streptococcus pneumoniae, ATCC51916; S. pneumoniae ATCC 51916; read-out: MIC
Description: as §1

[3] = test system: Methicillin-resistant S. epidermidis NRS101; experiment: MIC, Gram-positive panel; settings: Staphylococcus epidermidis; Methicillin-resistant S. epidermidis NRS101; read-out: MIC
Description: as §1

MRSA NRS 385 = experiment: MIC, Gram-positive panel; settings: Staphylococcus aureus; MRSA NRS 385; read-out: MIC
Description: as §1

[4] = test system: Methicillin-resistant S. pneumoniae ATCC 700677; experiment: MIC, Gram-positive panel; settings: Streptococcus pneumoniae, ATCC700677; Methicillin-resistant S. pneumoniae ATCC 700677; read-out: MIC
Description: as §1

S. aureus NRS 107 = experiment: MIC, Gram-positive panel; settings: Staphylococcus aureus, NRS107; S. aureus NRS 107; read-out: MIC
Description: as §1

[5] = test system: Staphylococcus aureus NRS384 (MRSA USA300); experiment: Initial MIC screening, broth microdilution (CLSI); settings: Staphylococcus aureus NRS384 (MRSA USA300), broth microdilution, visual reading
Description: Method: The minimum inhibitory concentration (MIC) of the compounds 1-187, and control antibiotics (vancomycin, linezolid) was determined using the broth microdilution method against methicillin-resistant Staphylococcus aureus (MRSA) USA 300 using the broth microdilution method according to the guidelines outlined by the Clinical and Laboratory Standards Institute (CLSI). MRSA strain was cultivated on Tryptic soy agar plates and let grow for 24 hours at 37° C. under aerobic conditions. Bacterial suspension equivalent to 0.5 McFarland standard was prepared and diluted in cation-adjusted Mueller-Hinton broth (CAMHB) to attain a bacterial concentration of 5×10^5 CFU/ml and seeded in 96-well plates. The desired concentrations of each drug and compound were added in the first row of the 96-well plates and serially diluted to achieve a concentration gradient from 64 μg/ml to 0.5 μg/mL.

[6] = Staphylococcus aureus, read-out: MIC

Row | SMILES | MIC [5, 6] | other results
1 | CC(=O)NC[C@H]1CN(c2ccc(N3CCOCC3)c(F)c2)C(=O)O1 [linezolid, reference compound] | – | MIC (VRSA 12): 1 µg/mL (≈ 2.96 µM); MIC (MRSA NRS 119): > 16 µg/mL; MIC (VRSA 10): 1 µg/mL (≈ 2.96 µM); MIC (MRSA NRS 386): 2 µg/mL (≈ 5.93 µM); MIC (S. aureus ATCC 6538): 2 µg/mL (≈ 5.93 µM); MIC [1]: 2 µg/mL (≈ 5.93 µM); MIC (MRSA NRS 123): 2 µg/mL (≈ 5.93 µM); MIC [2]: 1 µg/mL (≈ 2.96 µM); MIC (S. pneumoniae ATCC 51916): 2 µg/mL (≈ 5.93 µM); MIC [3]: 1 µg/mL (≈ 2.96 µM); MIC (MRSA NRS 385): 2 µg/mL (≈ 5.93 µM); MIC [4]: 2 µg/mL (≈ 5.93 µM); MIC (S. aureus NRS 107): 1 µg/mL (≈ 2.96 µM)
2 | C=C1C(=O)O[C@H](c2ccccc2O)[C@@H]1c1cccc(C#N)c1 [Compound 50] | > 128 µg/mL | –
3 | C=C1C(=O)O[C@H](c2cccc(OC)c2)[C@@H]1c1ccccc1Br [Compound 55] | 8 µg/mL (≈ 22.3 µM) | –
4 | CC1(C)CC(CN2CCCCC2)C(=O)O1 (centres unmarked) [Compound 80] | > 128 µg/mL | –
5 | C=C1C(=O)O[C@H](c2ccc(C)cc2)[C@@H]1c1ccc(C#N)cc1 [Compound 65] | 4 µg/mL (≈ 13.8 µM) | –
6 | CN(C)C[C@@H]1C(=O)O[C@H](c2ccccc2)[C@@H]1c1ccccc1 [Compound 5] | 16 µg/mL (≈ 54.2 µM) | –
7 | C=C1C(=O)O[C@H](c2ccc(OC)cc2)[C@@H]1c1ccccc1B1OC(C)(C)C(C)(C)O1 [Compound 87] | > 128 µg/mL | –
8 | COc1ccc([C@H]2OC(=O)C(CN(C)C)[C@H]2c2ccc(C#N)cc2)cc1 (some centres unmarked) [Compound 15] | > 128 µg/mL | –
9 | C=C1C(=O)O[C@H](c2ccccc2)[C@@H]1c1ccc2ccccc2c1 [Compound 112] | – | MIC [5]: 64 µg/mL (≈ 213 µM)
10 | N#Cc1ccc([C@H]2COC(=O)C2CN2CCCCC2)cc1 (some centres unmarked) [Compound 28] | > 128 µg/mL | –
11 | O=C1O[C@H](C2CCCCC2)C[C@@H]1CN1CCCCC1 [Compound 47] | > 128 µg/mL | –
12 | C=C1C(=O)O[C@H](c2ccc(O)cc2)[C@@H]1c1cccc(C#N)c1 [Compound 43] | 128 µg/mL (≈ 439 µM) | –
13 | C=C1C(=O)O[C@H](c2c(OC)cc(OC)cc2OC)[C@@H]1c1ccc(C#N)cc1 [Compound 44] | > 128 µg/mL | –
14 | C=C1C(=O)O[C@H](/C=C/C)[C@@H]1c1ccc(Br)cc1 [Compound 59] | 32 µg/mL (≈ 109 µM) | –
15 | CCN(CC)C[C@@H]1C(=O)O[C@H](c2ccccc2)[C@@H]1c1ccccc1 [Compound 62] | 16 µg/mL (≈ 49.5 µM) | –
16 | C=C1C(=O)O[C@H](C2CCCCC2)[C@@H]1c1ccc(C)cc1 [Compound 93] | > 128 µg/mL | –
17 | COc1ccc([C@H]2OC(=O)[C@@H](CN(C)C)[C@H]2c2ccc(C)cc2)cc1 [Compound 7] | 32 µg/mL (≈ 94.3 µM) | –
18 | C=C1C(=O)O[C@H](c2ccc(OC)cc2)[C@@H]1c1ccc(C)cc1 [Compound 74] | 16 µg/mL (≈ 54.4 µM) | –
19 | C=C1C(=O)O[C@H](c2ccc(OCc3ccccc3)c(OC)c2)[C@@H]1c1ccccc1Br [Compound 85] | > 128 µg/mL | –

Row | SMILES | MIC [5, 6] | other results
20 | CC(C)(C)[Si](C)(C)OCC[C@H]1OC(=O)[C@@H](CN2CCCCC2)[C@H]1c1cccc(Br)c1 [Compound 48] | > 128 µg/mL | –
21 | C=C1C(=O)O[C@H](c2ccc(OCc3ccccc3)c(OC(C)=O)c2)[C@@H]1c1ccccc1Br [Compound 56] | > 128 µg/mL | –
22 | C=C1C(=O)O[C@H](c2cccc(Br)c2)[C@@H]1c1ccc(C#N)cc1 [Compound 1] | 8 µg/mL (≈ 22.6 µM) | –
23 | C=C1C(=O)O[C@H](c2ccc(OC)cc2)[C@@H]1c1ccc(C#N)cc1 [Compound 70] | 32 µg/mL (≈ 105 µM) | –
24 | COc1cc([C@H]2OC(=O)C(CN3CCCCC3)[C@H]2c2ccccc2Br)ccc1OCc1ccccc1 (some centres unmarked) [Compound 27] | > 128 µg/mL | –
25 | CCCCC[C@@H]1CC(CN2CCCCC2)C(=O)O1 (some centres unmarked) [Compound 26] | > 128 µg/mL | –
26 | C=C1C(=O)O[C@H](c2cccc(OC)c2)[C@@H]1c1ccc(C(F)(F)F)cc1 [Compound 83] | 16 µg/mL (≈ 45.9 µM) | –
27 | C=C1C(=O)O[C@H](c2ccc(OC)cc2)[C@@H]1c1cccc(Br)c1 [Compound 3] | 8 µg/mL (≈ 22.3 µM) | –
28 | Cc1ccc([C@H]2OC(=O)C(CN(C)C)[C@H]2c2ccccc2)cc1 (some centres unmarked) [Compound 18] | 128 µg/mL (≈ 414 µM) | –
29 | C=C1C(=O)O[C@H](c2ccc(OC)cc2)[C@@H]1c1ccccc1Br [Compound 78] | 8 µg/mL (≈ 22.3 µM) | –
30 | C=C1C(=O)O[C@H](c2cc(OC)c(OC)c(OC)c2)[C@@H]1c1ccc(C(F)(F)F)cc1 [Compound 92] | 32 µg/mL (≈ 78.4 µM) | –
31 | C=C1C(=O)O[C@H](c2cccc(C#N)c2)[C@@H]1c1ccc(OC)cc1 [Compound 20] | 16 µg/mL (≈ 52.4 µM) | –
32 | C=C1C(=O)O[C@H](c2ccccc2)[C@@H]1c1ccc(C)cc1 [Compound 64] | 32 µg/mL (≈ 121 µM) | –
33 | C=C1C(=O)O[C@H](c2ccccc2OC)[C@@H]1c1ccc(C(F)(F)F)cc1 [Compound 77] | 8 µg/mL (≈ 23 µM) | –
34 | O=C1OCCC1CN1CCCCC1 (centres unmarked) [Compound 34] | > 128 µg/mL | –
35 | C=C1C(=O)O[C@H](c2ccc(OC)cc2)[C@@H]1c1ccccc1 [Compound 75] | 64 µg/mL (≈ 228 µM) | –
36 | C=C1C(=O)O[C@H](c2ccc(N)cc2)[C@@H]1c1ccccc1 [Compound 22] | 32 µg/mL (≈ 121 µM) | –
37 | C=C1C(=O)O[C@H](c2ccnc3ccccc23)[C@H]1c1ccccc1 [Compound 113] | – | MIC [5]: 16 µg/mL (≈ 53.1 µM)

More lines, main results first:

Row | MIC [5, 6] | SMILES | other results
38 | > 128 µg/mL | C/C=C1/C(=O)O[C@H](c2ccc(C)cc2)[C@H]1C [Compound 104] | –
39 | > 64 µg/mL | C=C1C(=O)O[C@H](c2ccc3ccccc3c2)[C@@H]1c1cccc2ccccc12 [Compound 157] | –
40 | > 128 µg/mL | C=C1C(=O)O[C@H](c2ccc3ccccc3n2)[C@@H]1c1ccccc1 [Compound 116] | –
41 | 32 µg/mL (≈ 106 µM) | C=C1C(=O)O[C@H](c2ccnc3ncccc23)[C@H]1c1ccccc1 [Compound 121] | –
42 | > 128 µg/mL | C=C1C(=O)O[C@H](c2ccc(OC)cc2)[C@H]1C [Compound 118] | –
43 | > 128 µg/mL | C=C1C(=O)O[C@H](c2cccnc2)[C@@H]1C [Compound 119] | –
44 | > 128 µg/mL | C=C1C(=O)O[C@H](C2CCCCC2)[C@@H]1c1ccccc1 [Compound 106] | –
45 | > 64 µg/mL | C=C(C(=O)OC)C(c1cccc2ccccc12)C(O)c1ccc2ccccc2c1 (centres unmarked) [Compound 146] | –
46 | 4 µg/mL (≈ 12 µM) | C=C(C(=O)OC)C(c1ccccc1)C(O)c1cccc2ccccc12 (centres unmarked) [Compound 142] | –
47 | 8 µg/mL (≈ 26.6 µM) | C=C1C(=O)O[C@H](c2ccc3ccccc3c2)[C@H]1c1ccccc1 [Compound 110] | –
48 | > 128 µg/mL | CCN(CC)CC1C(=O)O[C@H](c2ccc3ccccc3c2)[C@@H]1c1ccccc1 (some centres unmarked) [Compound 96] | –
49 | 32 µg/mL (≈ 121 µM) | C=C1C(=O)O[C@@H]2c3c(ccc4ccccc34)C(C)C[C@H]12 (some centres unmarked) [Compound 94] | –
50 | 16 µg/mL (≈ 47.7 µM) | O=C1O[C@H](c2ccccc2)[C@H](c2ccccc2)C1CN1CCCCC1 (some centres unmarked) [Compound 159] | –
51 | > 128 µg/mL | C=C1C(=O)O[C@H](c2ccc(OC)cc2)[C@@H]1C [Compound 117] | –
52 | 4 µg/mL (≈ 10.1 µM) | CN(C)CC1C(=O)O[C@H](c2cccc3ccccc23)[C@@H]1c1ccc2ccccc2c1 (some centres unmarked) [Compound 169] | –
53 | 2 µg/mL (≈ 5.69 µM) | C=C1C(=O)O[C@H](c2ccnc3ccccc23)[C@@H]1c1ccc2ccccc2c1 [Compound 111] | –
